Experimental findings from PubChem BioAssay AID493130 (Broad Institute, 2011) are described below.

The structures appear in SMILES notation. Results filed as inconclusive are left out. Activity calls are given as the source filed them.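 Rule for the calls: active = signal-lowering compounds whose fitted half-maximal concentration is at most ten times their highest tested dose; inconclusive = flat fit between -30 and -70%, or poor fit; inactive = flat within 30%, signal rising, or potency beyond limit.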

The first assay addresses POS-1 (Caenorhabditis elegans) binding to mex-3 RNA. The experiment in a line: C. elegans POS-1 RNA interaction disruptors – biochemical, fluorescence polarization, cherry-picked samples, set 2, counter-screen for MEX-5 RNA-binding inhibitor project, dose response (AID 493130).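 Note: POS-1 as maltose binding protein fusion made in E. coli with FITC RNA.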 The note with it: POS-1/mex-3 RNA fluorescence polarization, 1 h. Background: In fluorescence polarisation assays a small probe gives low polarisation when free and higher when bound to something large.
For the molecule `Cc1cc(-c2csc(N)n2)c(C)n1C`, the AC50 – broadly, the midpoint of the concentration-response curve, whichever way the signal moves – is 8.77 µM. The same measure, in the same setting: in the case of `CCN1CC=C2C(C#N)=C(N)C(C#N)(C#N)[C@H](c3ccoc3)[C@H]2C1` it was 6.73 µM; in that of `O=C(N/N=C/c1c(O)n(Cc2ccccc2)c(=O)[nH]c1=O)c1ccccc1O`, 4.84 µM; in that of `CCc1cc[n+](-c2nc3ccccc3nc2[N-]S(=O)(=O)c2ccc(Br)s2)cc1`, 1.25 µM. The same measure, in the same setting: in the case of `COc1ccc(C2C=C(c3ccc(Br)cc3)Nc3nc(N4C(=O)CCC4=O)nn32)cc1` (stereo not given) it was 8.26 µM; in that of `CCNC(=S)N/N=C/c1sc(N2CCCCC2)nc1-c1cccs1`, 4.68 µM.

`CC1(C)CC(=O)C2=C(C1)N=c1s/c(=C/c3ccc(F)c(F)c3)c(=O)n1C2c1ccc(F)cc1` (stereo not given): the AC50 was > 10 µM (inactive).

In the case of `CC(=O)Nc1ccc(S(=O)(=O)NNC(=O)C(=O)NNc2ccccn2)cc1`, the AC50 was > 10 µM (inactive).

For the molecule `CN1Cc2sc(N)c(C#N)c2CC1(C)C`, the AC50 was 9.75 µM. As to `CCN(CC)c1ccc(/C=C(/C#N)c2nc3ccc(C)cc3[nH]2)c(OC(C)C)c1`, the AC50 was 1.61 µM. Still for that read-out and setting: the value for `COc1ccc(NC(=S)NNc2ccc(S(=O)(=O)Nc3ccccc3C(=O)O)cc2[N+](=O)[O-])cc1` was 4.53 µM.

Staying with this assay, now noted: POS-1/mex-3 RNA fluorescence polarization, 1 h; at 10 µM (top of the series).
In the case of `CCOC(=O)C1(C)/C(=N/Nc2cccc(Cl)c2)C(=O)C(=O)N1c1ccccc1` (stereo not given), the “activity change, negative = inhibition” value was “inactive”. Consider `COc1ccc2ccccc2c1CNCc1ccccn1`, for which the “activity change, negative = inhibition” value was “inactive”.

Take `Nc1nc(Cl)nc2ccc(Br)cc12`: the “activity change, negative = inhibition” value is “inactive”. As for `COC(=O)c1cc(O)c(O)c(O)c1`, the “activity change, negative = inhibition” value is “inactive”.

As to `CCCc1cc(C(=O)Cc2ccc(C(=O)OCC)o2)c(O)cc1O`, the “activity change, negative = inhibition” value was “inactive”. For `O=C(NNC(=O)c1ccccc1[N+](=O)[O-])c1ccco1`, the “activity change, negative = inhibition” value is “inactive”. Same read-out and setting: the value for `C#CCN1C(=O)S/C(=C\c2ccc(-c3ccc(Cl)c(C(=O)O)c3)o2)C1=O` was “inactive”; that for `Cc1ccc(N=Nc2c(O)n(CN3CCOCC3)c3ccccc23)cc1` was “inactive”; that for `CS(=O)(=O)/C(C#N)=C/c1c(-c2ccccc2)nc2n1CCS2` was “inactive”.

As for `Oc1cccc(NC(=S)N=Nc2c(O)[nH]c3ccc(Br)cc23)c1`, the “activity change, negative = inhibition” value is “inactive”. Still for that read-out and setting: in the case of `COc1ccccc1NCc1cc(=O)oc2c(C)c(O)ccc12` it was “inactive”; in that of `CC(=O)CCS(=O)(=O)c1ccc(Oc2ccc(S(=O)(=O)CCC(C)=O)cc2)cc1`, “inactive”; in that of `CCCOc1ccc([C@@H]2C3CN(C(=O)OCC)CC=C3C(C#N)=C(N)C2(C#N)C#N)cc1OC` (stereo not given in full), “inactive”.

For the molecule `CC(=O)Nc1ccc(N=NC2C(=O)N(C(N)=S)N=C2C)cc1` (stereo not given), the “activity change, negative = inhibition” value is “inactive”. On the same count and under the same terms, in the case of `Cc1nnc(SCc2nc3sc4c(c3c(=O)[nH]2)CCCC4)n(N)c1=O` it was “inactive”; in that of `Cc1ccc(/C=C2/NC(=O)N(Cc3ccccc3)C2=O)s1`, “inactive”; in that of `Cc1ccc2cc(C#N)c(N3CCCN(C(=O)C4CCCO4)CC3)nc2c1C` (stereo not given), “inactive”.

With `O=C1N=c2ccccc2=C1c1sc(NS(=O)(=O)c2ccccc2)nc1O`, the “activity change, negative = inhibition” value was “inactive”. Same read-out and setting: the value for `Cc1ccccc1S(=O)(=O)NNC(=O)C(=O)NNc1ccccn1` was “inactive”; that for `Oc1cccc(/C=N/NC(=S)Nc2cccnc2)c1O` was “inactive”. With `O=C(NC(=S)NNS(=O)(=O)c1ccccc1)c1ccc([N+](=O)[O-])cc1`, the “activity change, negative = inhibition” value was “inactive”. Same read-out and setting: in the case of `Cc1nc2c3ccccc3nc(NNC(=O)CCC(=O)N3CCC(C)CC3)n2n1` it was “inactive”. `Cc1cc(C)c[n+](-c2nc([O-])sc2C=O)c1`: the “activity change, negative = inhibition” value is “inactive”. The same measure, in the same setting: in the case of `O=Nc1[nH]c(=O)c(/C=C(\O)c2ccccc2)nc1NO` it was “inactive”; in that of `O=C(NNC(=O)c1ccccc1Cl)c1csc(N2CCOCC2)n1`, “inactive”; in that of `CCCCN1C=CC(=C2C(=O)c3ccccc3C2=O)C=C1`, “inactive”. Still for that read-out and setting: in the case of `COc1ccc(/C=C/C(=O)N/C(=C\c2ccco2)C(=O)NCCc2nc3ccccc3[nH]2)cc1` it was “inactive”; in that of `O=[N+]([O-])c1ccc(O)c(C=Nc2ccc3c(c2)OCCO3)c1`, “inactive”; in that of `C=CCn1c(O)c(N=NC(=S)Nc2cccc(C)c2)c2ccccc21`, “inactive”. Same read-out and setting: the value for `O=c1[nH]nc(CNc2ccc(OC(F)(F)F)cc2)c2ccccc12` was “inactive”; that for `CC(C)(C)CC(C)(C)NCC(O)COc1ccc2c(c1)CCC2` (stereo not given) was “inactive”; that for `CCC(COC(C)=O)Nc1nc2c([nH]1)c(=O)n(C)c(=O)n2C` (stereo not given) was “inactive”.

Take `Cc1cc(C(=O)N/N=C/c2ccc(-c3ccc(C)c(Cl)c3)o2)n[nH]1`: the “activity change, negative = inhibition” value was “inactive”. Regarding `O=[N+]([O-])c1ccc(C2=CSC3=NCCN23)cc1`, the “activity change, negative = inhibition” value was “inactive”. As for `CCc1cccc2cc3c(N)c(C(=O)Nc4ccc(S(=O)(=O)N5CCCC5)cc4)sc3nc12`, the “activity change, negative = inhibition” value was “inactive”. Still for that read-out and setting: in the case of `CN1CCN(c2nc(-c3ccccc3)nc(-c3ccccc3)c2C#N)CC1` it was “inactive”. On the same count and under the same terms, the value for `O=C(Cc1cccs1)Nc1nnc(SCc2ccc(Br)cc2)s1` was “inactive”; that for `COC/C=C/C1=CC2=CC(=O)C(C)(O)C(=O)C2=CO1` (stereo not given) was “inactive”; that for `CC/C(=N/Nc1cccc(C)c1)c1cnnc(SC)n1` was “inactive”. The same measure, in the same setting: in the case of `CC(C)CN1CCN(Cc2cccc3ncccc23)CC1CCO` (stereo not given) it was “inactive”. `CN1C(=O)C(=Cc2sc(=O)n(-c3ccccc3)c2N(C)C)C(=O)N(C)C1=O`: the “activity change, negative = inhibition” value is “inactive”. Still for that read-out and setting: the value for `CCc1cc(-c2n[nH]c(C)c2-c2nc3ccccc3s2)c(O)cc1OCC(=O)NN` was “inactive”; that for `CN1/C(=C\C=C(/C#N)C(=O)Nc2ccccc2F)C(C)(C)c2ccccc21` was “inactive”. Still for that read-out and setting: in the case of `CC1=CC2=NC(=O)/C(=C\c3cn(C)c4ccccc34)C(=N)N2O1` it was “inactive”; in that of `O=C(O)c1cc(Oc2ccc(C(F)(F)F)cc2Cl)ccc1[N+](=O)[O-]`, “inactive”; in that of `COc1ccc(N(CCC#N)C(=O)/C(C#N)=C/c2cccs2)cc1`, “inactive”. In the case of `Cc1ccc2c(c1)-c1ccccc1S(=O)(=O)N2`, the “activity change, negative = inhibition” value is “inactive”. On the same count and under the same terms, in the case of `O=C(Nc1cccc2ncccc12)c1ccccc1[N+](=O)[O-]` it was “inactive”; in that of `CN(N)c1ccc2c(C(F)(F)F)cc(C(F)(F)F)nc2n1`, “inactive”; in that of `Oc1c(Cl)cc(Cl)c2c1NCCC2`, “inactive”. Same read-out and setting: in the case of `Cc1ccc(C(=O)N/N=C/c2ccc(-c3ccc(Br)cc3[N+](=O)[O-])o2)o1` it was “inactive”; in that of `COCCNC(=S)NNC(=O)c1cccs1`, “inactive”.

Regarding `CCOC(=O)c1sc2nc(C)[nH]c(=S)c2c1C`, the “activity change, negative = inhibition” value was “inactive”.

For the molecule `CN1C(=O)/C(=C/c2cn(CC(=O)N3CCCCC3)c3ccccc23)c2ccccc21`, the “activity change, negative = inhibition” value was “inactive”. As to `C[n+]1c2ccccc2nc2ccc(NCCO)cc21`, the “activity change, negative = inhibition” value is “inactive”. The same measure, in the same setting: in the case of `Cc1ccc(C(=O)/C=C/c2ccccc2[N+](=O)[O-])cc1` it was “inactive”; in that of `NC1=C([N+](=O)[O-])C(c2ccc3c(c2)OCO3)C2=C(CCCC2=O)O1` (stereo not given), “inactive”; in that of `COC(=O)COc1ccc(C2Nc3c(Cl)ccc(C(=O)O)c3C3C=CCC32)cc1` (stereo not given), “inactive”. As for `O=C1NC(=O)N(Cc2ccccc2)C(=O)/C1=C\c1ccco1`, the “activity change, negative = inhibition” value was “inactive”.

Turning to `COc1ccc(/C=N/NC(=O)c2ccc(=O)[nH]n2)cc1OC`, the “activity change, negative = inhibition” value was “inactive”. Turning to `N=C(N)N=Nc1c(O)[nH]c2ccc(Br)cc12`, the “activity change, negative = inhibition” value is “inactive”. The same measure, in the same setting: the value for `CCOc1cc(/C=N/n2c(C)nc3ccccc3c2=O)ccc1O` was “inactive”; that for `O=C(O)c1ccc(NCc2cccnc2)cc1` was “inactive”. Same read-out and setting: in the case of `Cc1c(Br)c(=O)oc2c(Br)c(O)c(O)cc12` it was “inactive”. As to `O=C1NC(=O)/C(=C/c2ccc(N3CCOCC3)o2)N1`, the “activity change, negative = inhibition” value is “inactive”.

With `CN(C)c1ccc(/C=N/NC(=O)c2cnc3ccccc3c2)cc1`, the “activity change, negative = inhibition” value was “inactive”. In the case of `COc1ccc(CC(=O)NNc2ncnc3c2cnn3C)cc1`, the “activity change, negative = inhibition” value is “inactive”. Still for that read-out and setting: in the case of `CCN(Cc1ccccc1)c1ccc(/C=C(\C#N)c2ccccn2)cc1` it was “inactive”; in that of `Cc1ccccc1C(=O)N=c1ccn(-c2nc3ccccc3nc2NS(=O)(=O)c2ccccc2)cc1`, “inactive”. The same measure, in the same setting: in the case of `COc1ccccc1N=Nc1c(C)[nH][nH]c1=O` it was “inactive”.

As to `Brc1ccc(-c2cn3nc4c(nc3n2)CCCC4)cc1`, the “activity change, negative = inhibition” value is “inactive”. With `COc1ccc(CN2C(=O)NC(=O)/C(=C\c3ccco3)C2=O)cc1`, the “activity change, negative = inhibition” value is “inactive”. With `Cc1cccc2c(N=Nc3ccccc3)c(O)[nH]c12`, the “activity change, negative = inhibition” value was “inactive”. As to `CN(C)C(=O)Oc1ccc2c(c1)O/C(=C\c1ccccc1)C2=O`, the “activity change, negative = inhibition” value is “inactive”.
